These results are taken from patent US20250059198A1, “BRM DEGRADING COMPOUNDS AND ASSOCIATED METHODS OF USE” (Arvinas Operations, Inc., priority 2021, published 2025).

A value given as a limit tells only on which side of the number the result lay.

This assay has as its target T1, BRM (Homo sapiens, UniProt P51531).
T1 construct: Western Blot Screen of BRM Degradation in SW1573 Cells; endogenous in cells; host or cells: SW1573 cells
The assay is described as follows: BRM degradation (Dmax and DC50) in SW1573 cells, Western blot screen / In-Cell Western screen. Type of assay: cell-based. The following applies: overnight (18-20 hours) treatment; for Dmax: read-out: Dmax (%)** (% degraded). The method, boiled down:
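Dmax and DC50 were derived from BRM levels normalised to an alpha-tubulin control, measured by chemiluminescent Western blotting of lysates or by PFA-fixed In-Cell Western on LI-COR Odyssey. SW1573 cells received compound overnight (18–20 h, 0.1% DMSO final).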
In general terms: In western blotting, separated proteins are transferred to a membrane and probed.

T1 sequence (P51531 whole entry): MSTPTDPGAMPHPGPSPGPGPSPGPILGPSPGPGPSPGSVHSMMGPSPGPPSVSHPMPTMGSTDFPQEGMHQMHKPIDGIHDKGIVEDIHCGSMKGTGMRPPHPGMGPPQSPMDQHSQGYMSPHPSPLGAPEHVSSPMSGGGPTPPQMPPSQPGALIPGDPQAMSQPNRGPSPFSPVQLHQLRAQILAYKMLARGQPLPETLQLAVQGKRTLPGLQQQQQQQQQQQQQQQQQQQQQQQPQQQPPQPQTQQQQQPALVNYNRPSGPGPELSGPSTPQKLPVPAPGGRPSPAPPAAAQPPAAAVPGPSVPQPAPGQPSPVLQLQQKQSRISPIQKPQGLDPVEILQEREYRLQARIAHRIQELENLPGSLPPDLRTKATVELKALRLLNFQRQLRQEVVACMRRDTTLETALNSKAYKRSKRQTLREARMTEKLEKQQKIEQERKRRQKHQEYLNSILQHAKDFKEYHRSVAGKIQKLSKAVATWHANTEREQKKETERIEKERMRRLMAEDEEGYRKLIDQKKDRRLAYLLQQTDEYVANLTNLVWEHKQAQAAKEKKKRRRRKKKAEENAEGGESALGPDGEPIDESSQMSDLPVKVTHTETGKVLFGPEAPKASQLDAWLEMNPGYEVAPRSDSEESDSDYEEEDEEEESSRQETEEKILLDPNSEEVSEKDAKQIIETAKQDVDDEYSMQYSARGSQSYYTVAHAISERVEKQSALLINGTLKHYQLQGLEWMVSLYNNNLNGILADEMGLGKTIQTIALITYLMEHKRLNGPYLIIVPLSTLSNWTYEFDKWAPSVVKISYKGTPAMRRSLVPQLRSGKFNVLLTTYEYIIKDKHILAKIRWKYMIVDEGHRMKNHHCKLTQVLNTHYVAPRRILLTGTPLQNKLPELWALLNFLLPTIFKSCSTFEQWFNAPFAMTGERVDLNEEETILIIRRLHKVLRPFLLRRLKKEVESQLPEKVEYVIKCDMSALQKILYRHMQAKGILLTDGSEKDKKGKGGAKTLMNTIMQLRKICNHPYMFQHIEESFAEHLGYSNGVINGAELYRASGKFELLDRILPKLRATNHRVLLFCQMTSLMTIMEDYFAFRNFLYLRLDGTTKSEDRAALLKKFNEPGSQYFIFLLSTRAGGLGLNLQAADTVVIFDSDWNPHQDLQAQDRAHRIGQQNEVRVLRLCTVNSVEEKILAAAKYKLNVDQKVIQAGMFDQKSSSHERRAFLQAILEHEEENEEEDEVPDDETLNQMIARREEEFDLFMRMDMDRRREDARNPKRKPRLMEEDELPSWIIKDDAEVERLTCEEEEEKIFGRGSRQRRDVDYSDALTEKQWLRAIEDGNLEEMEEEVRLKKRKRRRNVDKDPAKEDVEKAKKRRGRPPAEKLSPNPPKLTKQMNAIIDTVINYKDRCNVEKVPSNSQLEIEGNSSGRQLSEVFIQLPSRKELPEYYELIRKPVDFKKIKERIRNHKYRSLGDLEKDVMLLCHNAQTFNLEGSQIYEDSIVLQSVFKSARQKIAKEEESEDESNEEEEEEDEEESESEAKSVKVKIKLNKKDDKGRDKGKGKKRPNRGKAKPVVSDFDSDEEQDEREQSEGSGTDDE

For `Cc1ncsc1-c1ccc([C@H](C)NC(=O)[C@@H]2C[C@@H](O)CN2C(=O)[C@@H](c2cc(N3CCC(CN4CCC(O[C@H]5C[C@H](N6CCC(O)(CN7C8CCC7CN(c7cc(-c9ccccc9O)nnc7N)C8)CC6)C5)CC4)CC3)no2)C(C)C)cc1` [Compound 11, (2S,4R)-4-hydroxy-N-[(1S)-1-[4-(4-methyl-1,3-thiazol-5-yl)phenyl]ethyl]-1-[(2R)-3-methyl-2-{3-[4-({4-[(1r,3r)-3-[4-({3-[3-amino-6-(2-hydroxyphenyl)pyridazin-4-yl]-3,8-diazabicyclo[3.2.1]octan-8-yl}methyl)-4-hydroxypiperidin-1-yl]cyclobutoxy]piperidin-1-yl}methyl)piperidin-1-yl]-1,2-oxazol-5-yl}butanoyl]pyrrolidine-2-carboxamide], the DC50 was less than 2.5 nM and the Dmax is greater than 75%.

As for `Cc1ncsc1-c1ccc([C@H](C)NC(=O)[C@@H]2C[C@@H](O)CN2C(=O)[C@@H](c2cc(N3CCC(CN4CCC(O[C@H]5C[C@H](N6CCC([C@H](C)n7cc(-c8cc(-c9ccccc9O)nnc8N)cn7)CC6)C5)CC4)CC3)no2)C(C)C)cc1` [Compound 9, (2S,4R)-4-hydroxy-N-[(1S)-1-[4-(4-methyl-1,3-thiazol-5-yl)phenyl]ethyl]-1-[(2R)-3-methyl-2-{3-[4-({4-[(1r,3r)-3-{4-[(1S)-1-{4-[3-amino-6-(2-hydroxyphenyl)pyridazin-4-yl]-1H-pyrazol-1-yl}ethyl]piperidin-1-yl}cyclobutoxy]piperidin-1-yl}methyl)piperidin-1-yl]-,2-oxazol-5-yl}butanoyl]pyrrolidine-2-carboxamide], the DC50 was less than 2.5 nM and the Dmax is greater than 75%.

For `Cc1ncsc1-c1ccc([C@H](C)NC(=O)[C@@H]2C[C@@H](O)CN2C(=O)[C@@H](c2cc(OCCN3CCN(CCOc4cc(N5C6CCC5CN(c5cc(-c7cc(F)ccc7O)nnc5N)C6)ccn4)[C@H](C)C3)no2)C(C)C)cc1` [Compound 148, (2S,4R)-1-[(2R)-2-(3-{2-[(3R)-4-{2-[(4-{3-[3-amino-6-(5-fluoro-2-hydroxyphenyl)pyridazin-4-yl]-3,8-diazabicyclo[3.2.1]octan-8-yl}pyridin-2-yl)oxy]ethyl}-3-methylpiperazin-1-yl]ethoxy}-1,2-oxazol-5-yl)-3-methylbutanoyl]-4-hydroxy-N-[(1S)-1-[4-(4-methyl-1,3-thiazol-5-yl)phenyl]ethyl]pyrrolidine-2-carboxamide], the DC50 was less than 2.5 nM and the Dmax is greater than 75%.

Turning to `Cc1ncsc1-c1ccc([C@H](C)NC(=O)[C@@H]2C[C@@H](O)CN2C(=O)[C@@H](c2cc(N3CCC(CN4CCC5(CC4)CC(N4CCO[C@H]([C@@H](C)n6cc(C#Cc7cc(-c8ccccc8O)nnc7N)cn6)C4)C5)CC3)no2)C(C)C)cc1` [Compound 98, (2S,4R)-1-[(2R)-2-{3-[4-({2-[(2S)-2-[(1R)-1-(4-{2-[3-amino-6-(2-hydroxyphenyl)pyridazin-4-yl]ethynyl}-1H-pyrazol-1-yl)ethyl]morpholin-4-yl]-7-azaspiro[3.5]nonan-7-yl}methyl)piperidin-1-yl]-1,2-oxazol-5-yl}-3-methylbutanoyl]-4-hydroxy-N-[(1S)-1-[4-(4-methyl-1,3-thiazol-5-yl)phenyl]ethyl]pyrrolidine-2-carboxamide], the DC50 is less than 2.5 nM and the Dmax was greater than 75%.

`CC(C)[C@H](C(=O)N1C[C@H](O)C[C@H]1C(=O)N[C@@H](C)c1ccc(-c2ccnn2C)cc1)c1cc(N2CCC(CN3CCC(O[C@H]4C[C@H](Oc5cc(N6CCN(c7cc(-c8ccccc8O)nnc7N)CC6)ccn5)C4)CC3)CC2)no1` [Compound 2, (2S,4R)-4-hydroxy-N-[(1S)-1-[4-(1-methyl-1H-pyrazol-5-yl)phenyl]ethyl]-1-[(2S)-3-methyl-2-{3-[4-({4-[(1r,3r)-3-[(4-{4-[3-amino-6-(2-hydroxyphenyl)pyridazin-4-yl]piperazin-1-yl}pyridin-2-yl)oxy]cyclobutoxy]piperidin-1-yl}methyl)piperidin-1-yl]-1,2-oxazol-5-yl}butanoyl]pyrrolidine-2-carboxamide] gave a DC50 of no less than 30 nM.

Consider `CC(C)[C@@H](C(=O)N1C[C@H](O)C[C@H]1C(=O)N[C@@H](C)c1ccc(-c2scnc2C#CCOCCOCCOCCOCCOc2cc(N3C4CCC3CN(c3cc(-c5ccccc5O)nnc3N)C4)ccn2)cc1)N1Cc2ccccc2C1=O` [Compound 83, (2S,4R)-N-[(1S)-1-[4-(4-{1-[(4-{3-[3-amino-6-(2-hydroxyphenyl)pyridazin-4-yl]-3,8-diazabicyclo[3.2.1]octan-8-yl}pyridin-2-yl)oxy]-3,6,9,12-tetraoxapentadec-14-yn-15-yl}-1,3-thiazol-5-yl)phenyl]ethyl]-4-hydroxy-1-[(2S)-3-methyl-2-(1-oxo-2,3-dihydro-1H-isoindol-2-yl)butanoyl]pyrrolidine-2-carboxamide], for which the DC50 was no less than 30 nM.

In the case of `Cc1ncsc1-c1ccc([C@H](C)NC(=O)[C@@H]2C[C@@H](O)CN2C(=O)[C@H](c2cc(OCCOC(=O)N3CCC(O[C@H]4C[C@H](Oc5cc(N6C7CCC6CN(c6cc(-c8ccccc8O)nnc6N)C7)ccn5)C4)CC3)no2)C(C)C)cc1` [Compound 134, 2-({5-[(2S)-1-[(2S,4R)-4-hydroxy-2-{[(1S)-1-[4-(4-methyl-1,3-thiazol-5-yl)phenyl]ethyl]carbamoyl}pyrrolidin-1-yl]-3-methyl-1-oxobutan-2-yl]-1,2-oxazol-3-yl}oxy)ethyl 4-[(1r,3r)-3-[(4-{3-[3-amino-6-(2-hydroxyphenyl)pyridazin-4-yl]-3,8-diazabicyclo[3.2.1]octan-8-yl}pyridin-2-yl)oxy]cyclobutoxy]piperidine-1-carboxylate], the DC50 was no less than 30 nM.

On to `Cc1ncsc1-c1ccc([C@H](C)NC(=O)[C@@H]2C[C@@H](O)CN2C(=O)[C@@H](c2cc(N3C4CCC3CC(CN3CCC(O[C@H]5C[C@H](Oc6cc(N7C8CCC7CN(c7cc(-c9ccccc9O)nnc7N)C8)ccn6)C5)CC3)C4)no2)C(C)C)cc1` (stereo partly drawn) [Compound 21, (2S,4R)-4-hydroxy-N-[(1S)-1-[4-(4-methyl-1,3-thiazol-5-yl)phenyl]ethyl]-1-[(2R)-3-methyl-2-{3-[3-({4-[(1r,3r)-3-[(4-{3-[3-amino-6-(2-hydroxyphenyl)pyridazin-4-yl]-3,8-diazabicyclo[3.2.1]octan-8-yl}pyridin-2-yl)oxy]cyclobutoxy]piperidin-1-yl}methyl)-8-azabicyclo[3.2.1]octan-8-yl]-1,2-oxazol-5-yl}butanoyl]pyrrolidine-2-carboxamide], for which the DC50 was less than 2.5 nM and the Dmax is greater than 75%.

For the compound `CC(C)[C@@H](C(=O)N1C[C@H](O)C[C@H]1C(=O)N[C@@H](C)c1ccc(-c2ccnn2C)cc1)c1cc(N2CCC(CN3CCC(O[C@H]4C[C@H](N5CCC(C(C)n6ncc(C#Cc7cc(-c8ccccc8O)nnc7N)c6F)CC5)C4)CC3)CC2)no1` (stereo partly drawn) [Compound 84, (2S,4R)-4-hydroxy-N-[(1S)-1-[4-(1-methyl-1H-pyrazol-5-yl)phenyl]ethyl]-1-[(2R)-3-methyl-2-{3-[4-({4-[(1r,3r)-3-{4-[1-(4-{2-[3-amino-6-(2-hydroxyphenyl)pyridazin-4-yl]ethynyl}-5-fluoro-1H-pyrazol-1-yl)ethyl]piperidin-1-yl}cyclobutoxy]piperidin-1-yl}methyl)piperidin-1-yl]-1,2-oxazol-5-yl}butanoyl]pyrrolidine-2-carboxamide], the DC50 is less than 2.5 nM and the Dmax is greater than 75%.

Turning to `Cc1ncsc1-c1ccc([C@H](C)NC(=O)[C@@H]2C[C@@H](O)CN2C(=O)[C@@H](c2cc(N3CCC(CN4CCC5(CCC5N5CCO[C@H](CN6C7CCC6CN(c6cc(-c8ccccc8O)nnc6N)C7)C5)CC4)CC3)no2)C(C)C)cc1` (stereo partly drawn) [Compound 143, (2S,4R)-1-[(2R)-2-{3-[4-({1-[(2S)-2-({3-[3-amino-6-(2-hydroxyphenyl)pyridazin-4-yl]-3,8-diazabicyclo[3.2.1]octan-8-yl}methyl)morpholin-4-yl]-7-azaspiro[3.5]nonan-7-yl}methyl)piperidin-1-yl]-1,2-oxazol-5-yl}-3-methylbutanoyl]-4-hydroxy-N-[(1S)-1-[4-(4-methyl-1,3-thiazol-5-yl)phenyl]ethyl]pyrrolidine-2-carboxamide], the half-maximal degradation concentration (DC50) is less than 2.5 nM and the Dmax was greater than 75%.

A word on the DC50: it is the concentration giving 50% degradation. Higher therefore signals a less potent degrader. As usually defined, the Dmax is the largest share of the target that was removed.
